Activity calls are given as the source filed them. No cut-off for these calls is given here.
Experiments:
[1] = molecular target: T1, Metabotropic glutamate receptor 4 (Homo sapiens, UniProt Q14833); test: Activation of human mGluR4 expressed in CHO cells coexpressing Gqi5 protein assessed as potentiation of glutamate-induced response; type: cell-based
[2] = molecular target: T1, Metabotropic glutamate receptor 4; test: Activation of human mGluR4 expressed in CHO cells coexpressing Gqi5 protein assessed as potentiation of glutamate-induced response relative to glutamate alone; type: cell-based; parameters: concentration or dose not given beside the values
[3] = molecular target: Metabotropic glutamate receptor 1 (Homo sapiens) (UniProt Q13255); test: Antagonist activity at mGluR1 assessed as effect on glutamate-induced response; type: functional; parameters: scale not given: the % may be the effect or the level left
Metabotropic glutamate receptor 1 (Homo sapiens), sequence (Q13255 19-1194 limits assumed): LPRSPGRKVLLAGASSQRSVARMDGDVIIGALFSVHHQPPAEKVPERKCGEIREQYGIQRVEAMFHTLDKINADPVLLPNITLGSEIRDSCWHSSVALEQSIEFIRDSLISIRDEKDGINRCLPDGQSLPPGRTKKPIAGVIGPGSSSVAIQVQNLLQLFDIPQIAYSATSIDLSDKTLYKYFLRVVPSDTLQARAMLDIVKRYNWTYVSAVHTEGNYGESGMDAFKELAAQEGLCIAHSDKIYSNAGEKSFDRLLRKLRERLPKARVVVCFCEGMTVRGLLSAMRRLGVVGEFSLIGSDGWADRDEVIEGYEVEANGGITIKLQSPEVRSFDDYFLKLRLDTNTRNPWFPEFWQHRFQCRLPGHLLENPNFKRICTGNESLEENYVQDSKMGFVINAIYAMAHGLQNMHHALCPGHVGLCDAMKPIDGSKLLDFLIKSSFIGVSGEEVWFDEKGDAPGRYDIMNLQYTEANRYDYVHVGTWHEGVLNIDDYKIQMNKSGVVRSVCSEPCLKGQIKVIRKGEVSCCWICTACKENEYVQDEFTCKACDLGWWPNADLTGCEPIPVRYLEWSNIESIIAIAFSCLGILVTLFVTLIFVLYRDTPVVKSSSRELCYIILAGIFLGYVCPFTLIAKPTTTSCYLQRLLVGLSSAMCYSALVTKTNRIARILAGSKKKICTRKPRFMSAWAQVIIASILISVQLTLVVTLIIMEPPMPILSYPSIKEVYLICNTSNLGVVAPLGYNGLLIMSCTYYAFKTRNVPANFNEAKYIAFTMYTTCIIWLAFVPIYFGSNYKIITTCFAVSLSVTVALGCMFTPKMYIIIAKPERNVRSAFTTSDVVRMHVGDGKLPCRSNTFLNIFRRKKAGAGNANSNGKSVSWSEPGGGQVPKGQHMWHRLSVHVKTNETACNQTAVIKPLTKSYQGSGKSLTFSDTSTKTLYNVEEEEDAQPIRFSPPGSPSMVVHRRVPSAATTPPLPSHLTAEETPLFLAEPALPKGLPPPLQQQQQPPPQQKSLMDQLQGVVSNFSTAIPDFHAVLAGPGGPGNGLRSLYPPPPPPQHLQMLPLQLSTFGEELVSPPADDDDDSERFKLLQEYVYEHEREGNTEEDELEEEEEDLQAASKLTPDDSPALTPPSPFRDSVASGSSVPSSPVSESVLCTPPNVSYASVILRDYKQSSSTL

[4] = molecular target: T1, Metabotropic glutamate receptor 4; test: Activation of human mGluR4 expressed in CHO cells coexpressing Gqi5 protein assessed as fold shifting of glutamate-induced response at 30 uM; type: cell-based
[5] = molecular target: Metabotropic glutamate receptor 8 (Homo sapiens) (UniProt O00222); test: Antagonist activity at mGluR8 assessed as effect on glutamate-induced response; type: functional
Metabotropic glutamate receptor 8 (Homo sapiens), sequence (O00222 whole entry): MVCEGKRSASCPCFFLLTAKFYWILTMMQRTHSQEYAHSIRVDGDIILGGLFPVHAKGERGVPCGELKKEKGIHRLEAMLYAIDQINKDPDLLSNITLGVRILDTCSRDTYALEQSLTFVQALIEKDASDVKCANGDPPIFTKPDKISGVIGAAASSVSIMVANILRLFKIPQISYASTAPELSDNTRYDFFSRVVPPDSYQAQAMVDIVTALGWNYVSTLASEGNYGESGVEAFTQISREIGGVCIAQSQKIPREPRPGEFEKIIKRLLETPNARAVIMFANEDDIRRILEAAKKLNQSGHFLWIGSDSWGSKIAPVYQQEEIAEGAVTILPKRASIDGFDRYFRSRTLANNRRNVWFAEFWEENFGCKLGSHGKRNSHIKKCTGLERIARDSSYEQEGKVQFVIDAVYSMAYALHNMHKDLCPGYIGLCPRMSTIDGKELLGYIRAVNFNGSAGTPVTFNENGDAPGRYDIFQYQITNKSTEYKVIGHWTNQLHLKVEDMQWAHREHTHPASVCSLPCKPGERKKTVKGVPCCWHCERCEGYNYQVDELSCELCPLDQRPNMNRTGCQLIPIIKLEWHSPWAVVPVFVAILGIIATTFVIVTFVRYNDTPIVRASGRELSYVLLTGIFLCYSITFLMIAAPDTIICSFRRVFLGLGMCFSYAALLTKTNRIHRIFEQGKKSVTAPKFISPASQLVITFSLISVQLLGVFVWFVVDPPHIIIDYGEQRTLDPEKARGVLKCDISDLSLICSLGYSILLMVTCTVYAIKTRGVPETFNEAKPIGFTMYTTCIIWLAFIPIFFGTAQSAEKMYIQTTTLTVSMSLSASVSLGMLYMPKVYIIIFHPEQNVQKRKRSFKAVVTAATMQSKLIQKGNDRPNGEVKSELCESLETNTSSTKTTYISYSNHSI

[6] = molecular target: Metabotropic glutamate receptor 5 (Homo sapiens) (UniProt P41594); test: Antagonist activity at mGluR5 assessed as effect on glutamate-induced response; type: functional
[7] = molecular target: T1, Metabotropic glutamate receptor 4; test: Activation of human mGluR4 expressed in CHO cells coexpressing Gqi5 protein in absence of glutamate; type: cell-based
[8] = molecular target: Metabotropic glutamate receptor 7 (Homo sapiens) (UniProt Q14831); test: Antagonist activity at mGluR7 assessed as effect on glutamate-induced response; type: functional
Metabotropic glutamate receptor 7 (Homo sapiens), sequence (Q14831 whole entry): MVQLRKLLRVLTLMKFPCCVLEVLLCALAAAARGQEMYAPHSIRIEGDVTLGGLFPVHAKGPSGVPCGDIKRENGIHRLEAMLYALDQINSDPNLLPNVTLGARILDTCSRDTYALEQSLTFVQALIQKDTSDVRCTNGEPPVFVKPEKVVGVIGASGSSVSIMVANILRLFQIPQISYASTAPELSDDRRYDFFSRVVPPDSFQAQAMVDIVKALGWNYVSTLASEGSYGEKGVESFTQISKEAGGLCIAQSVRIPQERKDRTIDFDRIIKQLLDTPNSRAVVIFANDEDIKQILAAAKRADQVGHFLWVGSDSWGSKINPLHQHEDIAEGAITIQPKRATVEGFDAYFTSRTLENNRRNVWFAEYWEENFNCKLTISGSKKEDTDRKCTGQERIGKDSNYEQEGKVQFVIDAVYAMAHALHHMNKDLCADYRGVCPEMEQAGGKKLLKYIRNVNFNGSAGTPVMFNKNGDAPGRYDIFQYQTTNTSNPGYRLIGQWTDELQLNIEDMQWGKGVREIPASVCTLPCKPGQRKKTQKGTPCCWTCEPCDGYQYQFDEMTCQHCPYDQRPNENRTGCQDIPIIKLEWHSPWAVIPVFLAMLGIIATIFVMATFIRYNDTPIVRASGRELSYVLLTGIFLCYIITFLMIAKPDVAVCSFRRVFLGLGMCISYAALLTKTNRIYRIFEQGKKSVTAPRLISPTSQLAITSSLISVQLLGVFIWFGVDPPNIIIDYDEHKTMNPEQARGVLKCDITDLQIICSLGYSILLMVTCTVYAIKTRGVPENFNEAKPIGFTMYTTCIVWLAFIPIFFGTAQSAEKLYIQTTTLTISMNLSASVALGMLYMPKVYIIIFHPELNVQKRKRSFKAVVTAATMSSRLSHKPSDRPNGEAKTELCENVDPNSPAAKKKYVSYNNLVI

[9] = molecular target: Metabotropic glutamate receptor 2 (Homo sapiens) (UniProt Q14416); test: Antagonist activity at mGluR2 assessed as effect on glutamate-induced response; type: functional
Metabotropic glutamate receptor 2 (Homo sapiens), sequence (Q14416 19-872 limits assumed): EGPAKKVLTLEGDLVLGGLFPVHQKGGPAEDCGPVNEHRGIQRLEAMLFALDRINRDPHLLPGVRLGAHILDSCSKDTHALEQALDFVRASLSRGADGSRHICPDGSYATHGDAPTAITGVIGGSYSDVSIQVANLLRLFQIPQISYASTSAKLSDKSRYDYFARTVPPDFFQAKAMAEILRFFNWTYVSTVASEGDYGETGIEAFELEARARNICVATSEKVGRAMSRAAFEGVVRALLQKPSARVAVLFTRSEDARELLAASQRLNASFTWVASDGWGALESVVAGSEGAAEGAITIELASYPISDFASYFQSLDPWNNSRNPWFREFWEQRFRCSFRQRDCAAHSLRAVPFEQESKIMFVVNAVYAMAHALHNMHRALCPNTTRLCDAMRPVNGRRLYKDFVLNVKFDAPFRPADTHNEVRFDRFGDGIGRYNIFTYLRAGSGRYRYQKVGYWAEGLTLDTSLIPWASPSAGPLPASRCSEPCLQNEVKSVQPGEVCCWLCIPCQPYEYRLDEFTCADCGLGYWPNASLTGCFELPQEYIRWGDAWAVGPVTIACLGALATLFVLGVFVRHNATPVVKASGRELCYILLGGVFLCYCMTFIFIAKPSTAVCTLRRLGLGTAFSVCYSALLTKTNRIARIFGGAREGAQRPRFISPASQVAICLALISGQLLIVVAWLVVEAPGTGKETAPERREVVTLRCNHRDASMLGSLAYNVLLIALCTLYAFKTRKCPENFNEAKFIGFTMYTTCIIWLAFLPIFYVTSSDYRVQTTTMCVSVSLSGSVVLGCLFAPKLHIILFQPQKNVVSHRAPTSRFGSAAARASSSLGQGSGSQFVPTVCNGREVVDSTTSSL

T1 sequence (Q14833 whole entry): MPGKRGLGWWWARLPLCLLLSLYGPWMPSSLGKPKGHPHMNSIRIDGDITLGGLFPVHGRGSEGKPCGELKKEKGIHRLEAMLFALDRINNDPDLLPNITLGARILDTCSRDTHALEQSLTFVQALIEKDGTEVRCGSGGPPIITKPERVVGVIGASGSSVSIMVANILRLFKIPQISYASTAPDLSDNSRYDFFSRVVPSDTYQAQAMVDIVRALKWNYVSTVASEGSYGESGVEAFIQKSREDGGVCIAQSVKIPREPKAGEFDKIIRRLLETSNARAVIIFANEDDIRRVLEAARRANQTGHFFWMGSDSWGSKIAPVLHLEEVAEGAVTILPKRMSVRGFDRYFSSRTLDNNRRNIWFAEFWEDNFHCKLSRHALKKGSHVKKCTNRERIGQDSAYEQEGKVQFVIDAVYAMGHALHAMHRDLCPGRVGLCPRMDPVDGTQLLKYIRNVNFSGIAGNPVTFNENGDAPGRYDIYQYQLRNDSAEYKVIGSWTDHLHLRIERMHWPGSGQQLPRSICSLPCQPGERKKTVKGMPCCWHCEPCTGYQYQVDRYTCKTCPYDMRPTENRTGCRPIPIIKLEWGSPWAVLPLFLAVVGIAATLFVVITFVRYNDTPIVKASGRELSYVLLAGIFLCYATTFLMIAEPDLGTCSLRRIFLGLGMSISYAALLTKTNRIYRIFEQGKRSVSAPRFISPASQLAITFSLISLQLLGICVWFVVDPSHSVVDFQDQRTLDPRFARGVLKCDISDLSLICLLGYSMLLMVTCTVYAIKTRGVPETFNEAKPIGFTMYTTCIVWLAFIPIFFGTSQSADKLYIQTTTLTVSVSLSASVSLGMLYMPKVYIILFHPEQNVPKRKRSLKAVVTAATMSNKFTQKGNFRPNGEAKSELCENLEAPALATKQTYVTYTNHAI

Row | SMILES | EC50 [1] [µM] | Activity [2] [%] | further results
1 | COC(=O)c1ccc(N2C(=O)c3ccccc3NC2C(C)c2ccccc2)cc1 (stereo not given) | > 10 | 69 | –
2 | Cc1nc2ccccc2nc1N/N=C/c1ccccc1 | 4.4 | 129 | –
3 | COc1ccccc1/C=N/Nc1nc2ccccc2nc1C | – | – | Activity [1]: inactive
4 | CC(c1ccccc1)C1Nc2ccccc2C(=O)N1c1cccc(F)c1 (stereo not given) | > 10 | 87 | –
5 | O=C(Nc1ccccc1)[C@]12C[C@H]1/C(=N\O)c1ccccc1O2 | – | – | Activity [3]: 30%
6 | Cc1nc2ccccc2nc1N/N=C/c1ccc(F)cc1 | > 5 | 87 | –

Further molecules by falling EC50 [1], results first:

Row | EC50 [1] [µM] | Activity [2] [%] | SMILES | further results
7 | 4.1 | 57 | Cc1nc2ccccc2nc1N/N=C/c1ccccc1O | –
8 | 3 | 129 | Cc1ccc(N2C(=O)c3ccccc3NC2C(C)c2ccccc2)cc1 (stereo not given) | –
9 | 2.4 | 136 | Cc1nc2ccccc2nc1N/N=C/c1cccc(O)c1 | –
10 | 1.7 | 144 | Cc1nc2ccccc2nc1N/N=C/c1ccc(O)cc1 | Activity [3]: inactive; fold change (FC) [4]: 36; Activity [5]: inactive; Activity [6]: inactive; Activity [7]: inactive; Activity [8]: inactive; Activity [9]: inactive
